Assay results: PubChem BioAssay (NCI)
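Here, GI50 denotes the concentration required for 50% inhibition of growth. Definition used: TGI = concentration required for complete inhibition of growth.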

Experiments:
Experiment in all cases: NCI tumour cell line growth inhibition, 384-well format
NCI-H226 lung = tested on: NCI-H226 lung
TK-10 renal = tested on: TK-10 renal
SK-OV-3 ovarian = tested on: SK-OV-3 ovarian
OVCAR-5 ovarian = tested on: OVCAR-5 ovarian
SK-MEL-2 melanoma = tested on: SK-MEL-2 melanoma
MDA-MB-435 melanoma = tested on: MDA-MB-435 melanoma
OVCAR-4 ovarian = tested on: OVCAR-4 ovarian
KM12 colon = tested on: KM12 colon
SF-539 CNS = tested on: SF-539 CNS
HCC-2998 colon = tested on: HCC-2998 colon
SW-620 colon = tested on: SW-620 colon
BT-549 breast = tested on: BT-549 breast
NCI/ADR-RES ovarian = tested on: NCI/ADR-RES ovarian
MDA-MB-468 breast = tested on: MDA-MB-468 breast
HT29 colon = tested on: HT29 colon
MCF7 breast = tested on: MCF7 breast
SF-268 CNS = tested on: SF-268 CNS
MDA-MB-231 breast = tested on: MDA-MB-231 breast
OVCAR-8 ovarian = tested on: OVCAR-8 ovarian
UACC-62 melanoma = tested on: UACC-62 melanoma
SF-295 CNS = tested on: SF-295 CNS
COLO 205 colon = tested on: COLO 205 colon
CAKI-1 renal = tested on: CAKI-1 renal
786-0 renal = tested on: 786-0 renal
SK-MEL-28 melanoma = tested on: SK-MEL-28 melanoma
K-562 leukemia = tested on: K-562 leukemia
UACC-257 melanoma = tested on: UACC-257 melanoma
PC-3 prostate = tested on: PC-3 prostate
NCI-H460 NSCLC = tested on: NCI-H460 NSCLC
SN12C renal = tested on: SN12C renal
NCI-H23 lung = tested on: NCI-H23 lung
U251 glioblastoma = tested on: U251 glioblastoma
T-47D breast = tested on: T-47D breast
HOP-62 NSCLC = tested on: HOP-62 NSCLC
LOX IMVI melanoma = tested on: LOX IMVI melanoma
OVCAR-3 ovarian = tested on: OVCAR-3 ovarian
NCI-H522 lung = tested on: NCI-H522 lung
SR leukemia = tested on: SR leukemia
NCI-H322M lung = tested on: NCI-H322M lung
M14 melanoma = tested on: M14 melanoma
CCRF-CEM leukemia = tested on: CCRF-CEM leukemia
HCT-15 colon = tested on: HCT-15 colon
IGROV1 ovarian = tested on: IGROV1 ovarian
UO-31 renal = tested on: UO-31 renal
ACHN renal = tested on: ACHN renal
RXF 393 renal = tested on: RXF 393 renal
HOP-92 NSCLC = tested on: HOP-92 NSCLC
SNB-19 CNS = tested on: SNB-19 CNS
RPMI-8226 leukemia = tested on: RPMI-8226 leukemia
A549 NSCLC = tested on: A549 NSCLC
HL-60(TB) leukemia = tested on: HL-60(TB) leukemia
DU-145 prostate = tested on: DU-145 prostate
HCT-116 colon = tested on: HCT-116 colon
MOLT-4 leukemia = tested on: MOLT-4 leukemia
MALME-3M melanoma = tested on: MALME-3M melanoma
SK-MEL-5 melanoma = tested on: SK-MEL-5 melanoma
A498 renal = tested on: A498 renal

With `CN(CC(=O)N(Cc1ccc(C2CCCCC2)cc1)c1ccc(C(=O)O)c(O)c1)S(=O)(=O)c1c(F)c(F)c(F)c(F)c1F` the GI50 (NCI-H226 lung) was 2.6 µM, the TGI (NCI-H226 lung) was 5.69 µM and the GI50 (TK-10 renal) was 14.5 µM. For the same molecule, the TGI (TK-10 renal) was 27.6 µM, the GI50 (SK-OV-3 ovarian) was 4.48 µM and the TGI (SK-OV-3 ovarian) was 15.5 µM. The GI50 (OVCAR-5 ovarian) was 19.1 µM, the TGI (OVCAR-5 ovarian) was 33.2 µM and the GI50 (SK-MEL-2 melanoma) was 2.02 µM. The TGI (SK-MEL-2 melanoma) was 3.62 µM, the GI50 (MDA-MB-435 melanoma) was 2.29 µM and the TGI (MDA-MB-435 melanoma) was 4.28 µM. The GI50 (OVCAR-4 ovarian) was 10.7 µM, the TGI (OVCAR-4 ovarian) was 22.6 µM and the GI50 (KM12 colon) was 4.16 µM. It also gave a TGI (KM12 colon) of 13.4 µM, a GI50 (SF-539 CNS) of 2.01 µM and a TGI (SF-539 CNS) of 3.76 µM. The GI50 (HCC-2998 colon) was 1.71 µM, the TGI (HCC-2998 colon) was 3.1 µM and the GI50 (SW-620 colon) was 1.93 µM. The TGI (SW-620 colon) was 3.37 µM, the GI50 (BT-549 breast) was 2.1 µM and the TGI (BT-549 breast) was 3.7 µM. The GI50 (NCI/ADR-RES ovarian) was 15.3 µM, the TGI (NCI/ADR-RES ovarian) was 28.6 µM and the GI50 (MDA-MB-468 breast) was 2.18 µM. For the same molecule, the TGI (MDA-MB-468 breast) was 3.7 µM, the GI50 (HT29 colon) was 2.29 µM and the TGI (HT29 colon) was 4.83 µM. It also gave a GI50 (MCF7 breast) of 1.88 µM, a TGI (MCF7 breast) of 3.54 µM and a GI50 (SF-268 CNS) of 1.94 µM. The TGI (SF-268 CNS) was 3.46 µM, the GI50 (MDA-MB-231 breast) was 1.98 µM and the TGI (MDA-MB-231 breast) was 3.47 µM. It also gave a GI50 (OVCAR-8 ovarian) of 1.92 µM, a TGI (OVCAR-8 ovarian) of 3.47 µM and a GI50 (UACC-62 melanoma) of 1.92 µM. The TGI (UACC-62 melanoma) was 3.36 µM, the GI50 (SF-295 CNS) was 16.2 µM and the TGI (SF-295 CNS) was 29.8 µM. The GI50 (COLO 205 colon) was 2.86 µM, the TGI (COLO 205 colon) was 6.54 µM and the GI50 (CAKI-1 renal) was 2.44 µM. The TGI (CAKI-1 renal) was 5.2 µM, the GI50 ([…]-0 renal) was 2.61 µM and the TGI (786-0 renal) was 7.22 µM. It also gave a GI50 (SK-MEL-28 melanoma) of 2.58 µM, a TGI (SK-MEL-28 melanoma) of 5.55 µM and a GI50 (K-562 leukemia) of 2.1 µM. It also gave a TGI (K-562 leukemia) of 3.56 µM, a GI50 (UACC-257 melanoma) of 1.75 µM and a TGI (UACC-257 melanoma) of 3.18 µM. The GI50 (PC-3 prostate) was 2.17 µM, the TGI (PC-3 prostate) was 3.96 µM and the GI50 (NCI-H460 NSCLC) was 4.96 µM. It also gave a TGI (NCI-H460 NSCLC) of 16.9 µM, a GI50 (SN12C renal) of 2.09 µM and a TGI (SN12C renal) of 3.78 µM. It also gave a GI50 (NCI-H23 lung) of 6.96 µM, a TGI (NCI-H23 lung) of 18.3 µM and a GI50 (U251 glioblastoma) of 1.85 µM. The TGI (U251 glioblastoma) was 3.28 µM, the GI50 (T-47D breast) was 6.09 µM and the TGI (T-47D breast) was 18.6 µM. It also gave a GI50 (HOP-62 NSCLC) of 5.27 µM, a TGI (HOP-62 NSCLC) of 16.2 µM and a GI50 (LOX IMVI melanoma) of 1.93 µM. The TGI (LOX IMVI melanoma) was 3.36 µM, the GI50 (OVCAR-3 ovarian) was 2.19 µM and the TGI (OVCAR-3 ovarian) was 4.24 µM. The GI50 (NCI-H522 lung) was 1.88 µM, the TGI (NCI-H522 lung) was 3.29 µM and the GI50 (SR leukemia) was 1.79 µM. The TGI (SR leukemia) was 3.2 µM, the GI50 (NCI-H322M lung) was 4.14 µM and the TGI (NCI-H322M lung) was 12.6 µM. It also gave a GI50 (M14 melanoma) of 2 µM, a TGI (M14 melanoma) of 3.55 µM and a GI50 (CCRF-CEM leukemia) of 1.81 µM. It also gave a TGI (CCRF-CEM leukemia) of 3.21 µM, a GI50 (HCT-15 colon) of 1.93 µM and a TGI (HCT-15 colon) of 3.36 µM. It also gave a GI50 (IGROV1 ovarian) of 1.79 µM, a TGI (IGROV1 ovarian) of 3.34 µM and a GI50 (UO-31 renal) of 12.5 µM. It also gave a TGI (UO-31 renal) of 25 µM, a GI50 (ACHN renal) of 12.4 µM and a TGI (ACHN renal) of 24.9 µM. The GI50 (RXF 393 renal) was 1.83 µM, the TGI (RXF 393 renal) was 3.41 µM and the GI50 (HOP-92 NSCLC) was 2.65 µM. For the same molecule, the TGI (HOP-92 NSCLC) was 5.88 µM, the GI50 (SNB-19 CNS) was 1.99 µM and the TGI (SNB-19 CNS) was 3.6 µM. It also gave a GI50 (RPMI-8226 leukemia) of 1.79 µM, a TGI (RPMI-8226 leukemia) of 3.18 µM and a GI50 (A549 NSCLC) of 16.8 µM. For the same molecule, the TGI (A549 NSCLC) was 30.6 µM, the GI50 (HL-60(TB) leukemia) was 1.75 µM and the TGI (HL-60(TB) leukemia) was 3.14 µM. The GI50 (DU-145 prostate) was 18.6 µM, the TGI (DU-145 prostate) was 32.6 µM and the GI50 (HCT-116 colon) was 1.83 µM. The TGI (HCT-116 colon) was 3.29 µM, the GI50 (MOLT-4 leukemia) was 1.89 µM and the TGI (MOLT-4 leukemia) was 3.32 µM. The GI50 (MALME-3M melanoma) was 2.52 µM, the TGI (MALME-3M melanoma) was 4.96 µM and the GI50 (SK-MEL-5 melanoma) was 4.6 µM. It also gave a TGI (SK-MEL-5 melanoma) of 14.5 µM, a GI50 (A498 renal) of 15.1 µM and a TGI (A498 renal) of 28.4 µM.
